{"source": "paper PMC5736175", "about": "“Nicotinic alpha 7 receptor agonists EVP-6124 and BMS-933043, attenuate scopolamine-induced deficits in visuo-spatial paired associates learning” (PLoS ONE, 2017)", "key": {"[1]": {"test": "Plasma pharmacokinetics in satellite animals (LC-MS/MS), 60 min after i.m. dose", "conditions": "for concentration at 60 min: cynomolgus monkey, in vivo, nM total compound in plasma from satellite animals", "procedure": "For all compounds, plasma pharmacokinetic studies were conducted in a separate cohort of cynomolgus monkeys (N = 2–3 subjects per dose) before beginning vsPAL testing to help guide dose selection. Blood samples were obtained with the animals awake and sitting in a primate chair.\n(§1) Plasma concentrations of test compounds were determined using LC-MS/MS assays. In brief, 50 μL plasma and sample containing compounds was extracted by protein precipitation method with 150 μL acetonitrile containing an internal standard. A 5 μL sample of supernatant was injected into the LC-MS/MS system. Analytes were separated by reversed phase chromatography and detection of each analyte was achieved through selected reaction monitoring mode of mass spectrometry. Samples were quantified by calculated peak area ratio of analyte and internal standard against a calibration curve."}, "[2]": {"test": "Plasma concentration in vsPAL subjects immediately after completion of testing (LC-MS/MS)", "conditions": "for concentration at 69.8 min: cynomolgus monkey, in vivo", "procedure": "For all compounds, plasma pharmacokinetic studies were conducted in a separate cohort of cynomolgus monkeys (N = 2–3 subjects per dose) before beginning vsPAL testing to help guide dose selection. Blood samples were obtained with the animals awake and sitting in a primate chair. For most test sessions with BMS-933043 and EVP-6124, plasma samples were also taken from a subset of vsPAL subjects (N = 4–5) immediately after completion of testing (mean (SD) sample collection time = 69.8 (9.8) min post injection).\nas §1"}, "human nAChR α7": {"system": "human nAChR α7", "parameters": "method as in PMID 27467081", "conditions": "intrinsic activity; HEK293 cells expressing human nAChR α7; cited from earlier work"}, "5-HT3 receptor": {"system": "5-HT3 receptor", "conditions": "cited from earlier work"}, "[3]": {"conditions": "0.03 mg/kg i.m., individual subjects"}, "[4]": {"conditions": "0.10 mg/kg i.m., individual subjects"}, "[5]": {"conditions": "0.30 mg/kg i.m., individual subjects"}, "[6]": {"conditions": "1.00 mg/kg i.m., individual subjects"}}, "note": "Several values for one entry are separate records, joined by “and”; a condition that tells them apart may be missing. Identical values can stand only once.", "data": [{"smiles": "c1cn(-c2cc(NC3=NC[C@@]4(CN5CCC4CC5)O3)ncn2)cn1", "note": "[BMS-933043, (2R)-N-(6-(1H-imidazol-1-yl)-4-pyrimidinyl)-4'H-spiro[4-azabicyclo[2.2.2]octane-2,5'-[1, 3]oxazol]-2'-amine]", "values": [{"measurement": "nM total compound in plasma from satellite animals, 60 min", "setting": "[1]; [3]", "result": "16.6 nM and 18.4 nM"}, {"measurement": "nM total compound in plasma from satellite animals, 60 min", "setting": "[1]; [4]", "result": "60.9 nM and 70.1 nM"}, {"measurement": "nM total compound in plasma from satellite animals, 60 min", "setting": "[1]; [5]", "result": "145.0 nM and 280.0 nM and 133.0 nM"}, {"measurement": "nM total compound in plasma from satellite animals, 60 min", "setting": "[1]; [6]", "result": 1100.0, "unit": "nM"}, {"measurement": "concentration at 60 min", "setting": "[1]; 0.03 mg/kg, 0.03 mg/kg i.m., individual subjects", "result": 20.1, "unit": "nM"}, {"measurement": "concentration at 60 min", "setting": "[1]; 0.03 mg/kg, 0.03 mg/kg i.m., mean", "result": 18.4, "unit": "nM"}, {"measurement": "concentration at 60 min", "setting": "[1]; 0.1 mg/kg, 0.10 mg/kg i.m., individual subjects", "result": 66.6, "unit": "nM"}, {"measurement": "concentration at 60 min", "setting": "[1]; 0.1 mg/kg, 0.10 mg/kg i.m., mean", "result": 65.9, "unit": "nM"}, {"measurement": "concentration at 60 min", "setting": "[1]; 0.3 mg/kg, 0.30 mg/kg i.m., mean", "result": 186, "unit": "nM"}, {"measurement": "concentration at 60 min", "setting": "[1]; 1 mg/kg, 1.00 mg/kg i.m., individual subjects", "result": 739, "unit": "nM"}, {"measurement": "concentration at 60 min", "setting": "[1]; 1 mg/kg, 1.00 mg/kg i.m., mean", "result": 920, "unit": "nM"}, {"measurement": "nM total compound in plasma post session", "setting": "[2]; [3]", "result": "14.6 nM and 11.9 nM and 13.1 nM"}, {"measurement": "nM total compound in plasma post session", "setting": "[2]; [4]", "result": "37.9 nM and 51.3 nM and 45.6 nM"}, {"measurement": "nM total compound in plasma post session", "setting": "[2]; [5]", "result": "156 nM and 134 nM and 143 nM"}, {"measurement": "nM total compound in plasma post session", "setting": "[2]; [6]", "result": "414 nM and 530 nM and 413 nM"}, {"measurement": "concentration at 69.8 min", "setting": "[2]; 0.03 mg/kg, nM total compound in plasma post session, 0.03 mg/kg i.m., individual subjects", "result": 13.4, "unit": "nM"}, {"measurement": "concentration at 69.8 min", "setting": "[2]; 0.03 mg/kg, nM total compound in plasma post session, 0.03 mg/kg i.m., mean 69.8 min post injection, group mean", "result": 13.3, "unit": "nM"}, {"measurement": "concentration at 69.8 min", "setting": "[2]; 0.1 mg/kg, nM total compound in plasma post session, 0.10 mg/kg i.m., individual subjects", "result": 56.3, "unit": "nM"}, {"measurement": "concentration at 69.8 min", "setting": "[2]; 0.1 mg/kg, nM total compound in plasma post session, 0.10 mg/kg i.m., mean 69.8 min post injection, group mean", "result": 47.8, "unit": "nM"}, {"measurement": "concentration at 69.8 min", "setting": "[2]; 0.3 mg/kg, nM total compound in plasma post session, 0.30 mg/kg i.m., individual subjects", "result": 125, "unit": "nM"}, {"measurement": "concentration at 69.8 min", "setting": "[2]; 0.3 mg/kg, nM total compound in plasma post session, 0.30 mg/kg i.m., mean 69.8 min post injection, group mean", "result": 140, "unit": "nM"}, {"measurement": "concentration at 69.8 min", "setting": "[2]; 1 mg/kg, nM total compound in plasma post session, 1.00 mg/kg i.m., individual subjects", "result": 614, "unit": "nM"}, {"measurement": "concentration at 69.8 min", "setting": "[2]; 1 mg/kg, nM total compound in plasma post session, 1.00 mg/kg i.m., mean 69.8 min post injection, group mean", "result": 493, "unit": "nM"}, {"measurement": "concentration at 69.8 min", "setting": "[2]; 1 mg/kg, plasma concentration at which efficacy was lost, scopolamine vsPAL model", "result": 493, "unit": "nM"}, {"measurement": "concentration at 69.8 min", "setting": "[2]; mean plasma concentration at which improved eventual accuracy was observed, experimental subjects on completion of behavioral testing, efficacious doses", "result": "13.3 to 140", "unit": "nM"}, {"measurement": "net charge relative to acetylcholine", "setting": "human nAChR α7", "result": 78, "unit": "%"}, {"measurement": "peak current response relative to acetylcholine", "setting": "human nAChR α7", "result": 24, "unit": "%"}, {"measurement": "selectivity for nAChR α7 versus the 5-HT3 receptor", "setting": "5-HT3 receptor", "result": "highly selective"}]}]}
